Counter-ions that a name gives are not always drawn.
Tested on: not listed separately
Experiment: Body weight during the in vivo efficacy study
Conditions: any of the treatment groups, during the experiment

Row | Molecule | weight loss
1 | CN(C)/N=N/c1[nH]cnc1C(N)=O [DTIC, dacarbazine, reference compound] | No significant weight loss
2 | COc1ccc(-c2nc(C(=O)c3ccc(F)cc3)c[nH]2)cc1 [5cb, (4-Fluorophenyl)(2-(4-methoxyphenyl)-1H-imidazol-4-yl)methanone] | No significant weight loss

Tested on: three melanoma cell lines and four human prostate cancer cell lines
Experiment: In vitro growth inhibition, average of all seven cell lines
Format: cell-based
Conditions: from average IC50 values

Row | Molecule | fold increase in activity compared with 5kb | fold decrease of activity compared with compound 5da
3 | O=C(c1ccc(F)cc1)c1c[nH]c(-c2ccc(OCc3ccccc3)cc2)n1 [5jb, (2-(4-(Benzyloxy)phenyl)-1H-imidazol-4-yl)(4-fluorophenyl)methanone] | 440 fold | 
4 | COc1cc(C(=O)c2c[nH]c(-c3ccc(C(F)(F)F)cc3)n2)cc(OC)c1OC [5la, (2-(4-(Trifluoromethyl)phenyl)-1H-imidazol-4-yl)(3,4,5-trimethoxyphenyl)methanone] |  | 12 fold

Same assay, conditions: read-out: average IC50; average of all seven cell lines, as given in the text

Row | Molecule | IC50
5 | COc1cc(C(=O)n2ccnc2-c2ccccc2)cc(OC)c1OC [5aaa, (2-Phenyl-1H-imidazol-1-yl)(3,4,5-trimethoxyphenyl) methanone] | > 10000 nM
6 | (4-Fluorophenyl)(2-(4-methoxyphenyl)-1-(phenylsulfonyl)-1H-imidazol-4-yl) methanone [4cb] | 43 nM
7 | (2-(4-(Dimethylamino)phenyl)-1-(phenylsulfonyl)-1H-imidazol-4-yl)(4-fluorophenyl)methanone [4gb] | 87 nM
8 | Cc1ccc(-c2nc(C(=O)c3ccc(F)cc3)c[nH]2)cc1 [5db-HCl, (4-Fluorophenyl)(2-(p-tolyl)-1H-imidazol-4-yl)methanone HCl salt] | 172 nM
9 | COc1cc(C(=O)c2c[nH]c(-c3ccc(N(C)C)cc3)n2)cc(OC)c1OC [5ga, (2-(4-(Dimethylamino)phenyl)-1H-imidazol-4-yl)(3,4,5-trimethoxyphenyl)methanone] | 131 nM
10 | O=S(=O)(c1ccccc1)n1ccnc1-c1ccccc1 [3a, 2-Phenyl-1-(phenylsulfonyl)-1H-imidazole] | > 10000 nM
11 | (4-Fluorophenyl)(1-(phenylsulfonyl)-2-(p-tolyl)-1H-imidazol-4-yl) methanone [4db] | 111 nM
12 | O=S(=O)(c1ccccc1)n1ccnc1-c1ccc(OCc2ccccc2)cc1 [3j, 2-(4-(Benzyloxy)phenyl)-1-(phenylsulfonyl)-1H-imidazole] | > 10000 nM
13 | (2-(3, 4-Dimethoxyphenyl)-1-(phenylsulfonyl)-1H-imidazol-4-yl)(3,4,5-trimethoxyphenyl)methanone [4ha] | 268 nM
14 | COc1ccc(C(=O)n2ccnc2-c2ccccc2)cc1 [5aba, (4-Methoxyphenyl)(2-phenyl-1H-imidazol-1-yl) methanone] | > 10000 nM
15 | (2-(4-(Benzyloxy)phenyl)-1-(phenylsulfonyl)-1 H-imidazol-4-yl)(4-fluorophenyl) methanone [4jb] | 61 nM
16 | O=[N+]([O-])c1ccc(-c2nccn2S(=O)(=O)c2ccccc2)cc1 [3x, 2-(4-Nitrophenyl)-1-(phenylsulfonyl)-1H -imidazole] | > 10000 nM
17 | COc1ccc(-c2nc(C(=O)c3cc(OC)c(OC)c(OC)c3)c[nH]2)cc1OC [5ha, (2-(3,4-Dimethoxyphenyl)-1H-imidazol-4-yl)(3,4,5-trimethoxyphenyl)methanone] | 330 nM
18 | (2-(4-(Dimethylamino)phenyl)-1-(phenylsulfonyl)-1H-imidazol-4-yl)(3, 4, 5-trimethoxyphenyl) methanone [4ga] | 285 nM

Further lines, results first:

Row | IC50 | Molecule
19 | 75 nM | O=C(c1ccc(F)cc1)c1c[nH]c(-c2ccc(OCc3ccccc3)cc2)n1 [5jb, (2-(4-(Benzyloxy)phenyl)-1H-imidazol-4-yl)(4-fluorophenyl)methanone]
20 | > 10000 nM | COc1ccc(C(=O)c2c[nH]c(-c3ccccc3)n2)cc1OC [5ae, (3,4-Dimethoxyphenyl)(2-phenyl-1H-imidazol-4-yl)methanone]
21 | > 10000 nM | COc1cccc(C(=O)c2c[nH]c(-c3ccccc3)n2)c1 [5ac, (3-Methoxyphenyl)(2-phenyl-1H-imidazol-4-yl)methanone]
22 | > 10000 nM | O=C(c1cccc(F)c1)c1c[nH]c(-c2ccccc2)n1 [5ag, (3-Fluorophenyl)(2-phenyl-1H-imidazol-4-yl)methanone]
23 | > 10000 nM | Cc1cccc(C(=O)c2c[nH]c(-c3ccccc3)n2)c1 [5ai, (2-Phenyl-1H-imidazol-4-yl)(m-tolyl)methanone]
24 | > 10000 nM | Cc1ccc(C(=O)c2c[nH]c(-c3ccccc3)n2)cc1 [5ah, (2-Phenyl-1H-imidazol-4-yl)(p-tolyl)methanone]
25 | > 10000 nM | COc1cc(C(=O)c2c[nH]c(-c3cc(OC)c(OC)c(OC)c3)n2)cc(OC)c1OC [5ea, (3,4,5-Trimethoxyphenyl)(2-(3,4,5-trimethoxyphenyl)-1H-imidazol-4-yl)methanone]
26 | 7300 nM | COc1cc(C(=O)c2c[nH]c(-c3ccc(OCc4ccccc4)cc3)n2)cc(OC)c1OC [5ja, (2-(4-(Benzyloxy)phenyl)-1H-imidazol-4-yl)(3,4,5-trimethoxyphenyl)methanone]
27 | 193 nM | COc1cc(C(=O)c2c[nH]c(-c3ccc(C(F)(F)F)cc3)n2)cc(OC)c1OC [5la, (2-(4-(Trifluoromethyl)phenyl)-1H-imidazol-4-yl)(3,4,5-trimethoxyphenyl)methanone]
28 | > 10000 nM | COc1cc(-c2nc(C(=O)c3ccc(F)cc3)c[nH]2)cc(OC)c1OC [5eb, (4-Fluorophenyl)(2-(3,4,5-trimethoxyphenyl)-1H-imidazol-4-yl)methanone]
29 | > 10000 nM | (4-Fluorophenyl)(2-(2-(trifluoromethyl)phenyl)-1H-imidazol-4-yl)methanone [5ib]
30 | > 10000 nM | COc1ccc(C(=O)c2c[nH]c(-c3ccccc3)n2)cc1 [5ab, (4-Methoxyphenyl)(2-phenyl-1 H-imidazol-4-yl)methanone]

Tested on: Bovine brain tubulin
Experiment: In vitro microtubule polymerization assay
Format: biochemical
Conditions: 10 μM compound, absorbance at 340 nm, 15 min, 37°C

Row | Molecule | inhibition of tubulin polymerization
31 | COc1cc(C(=O)c2c[nH]c(-c3ccc(C)cc3)n2)cc(OC)c1OC [5da, (2-(p-Tolyl)-1H-imidazol-4-yl)(3,4,5-trimethoxyphenyl)methanone] | completely inhibited

Tested on: not listed separately
Experiment: Aqueous solubility, miniaturized shake-flask method with LC-MS/MS
Format: physicochemical
Conditions: buffer pH7.0

Row | Molecule | aqueous solubility, times greater than SMART-1
32 | COc1cc(C(=O)c2c[nH]c(-c3ccc(N(C)C)cc3)n2)cc(OC)c1OC [5ga, (2-(4-(Dimethylamino)phenyl)-1H-imidazol-4-yl)(3,4,5-trimethoxyphenyl)methanone] | about 50 times

Same assay, conditions: water

Row | Molecule | aqueous solubility, times greater than SMART-1
33 | COc1cc(C(=O)c2c[nH]c(-c3ccc(N(C)C)cc3)n2)cc(OC)c1OC [5ga, (2-(4-(Dimethylamino)phenyl)-1H-imidazol-4-yl)(3,4,5-trimethoxyphenyl)methanone] | ~10 times

Tested on: MDA-MB-435
Experiment: In vitro growth inhibition, sensitive parent melanoma cell line
Format: cell-based, human
Conditions: read-out: IC50 ± SEM MDA-MB-435, n=3

Row | Molecule | IC50
34 | (4-Fluorophenyl)(2-(4-methoxyphenyl)-1-(phenylsulfonyl)-1H-imidazol-4-yl) methanone [4cb] | 38 ± 3 nM
35 | (2-(4-Chlorophenyl)-1-(phenylsulfonyl)-1H-imidazol-4-yl)(4-fluorophenyl)methanone [4fb] | 50 ± 6 nM
